Laboratory results reported in the supplement of paper PMC10307832.

Experiments:
Assay in all cases: relative viability (nuclei count vs DMSO), 5 days (fraction); higher = more cells survive
Carboplatin + Navitoclax = compound: C1CC(C1)(C(=O)O)C(=O)O.[NH2-].[NH2-].[Pt+2] [Carboplatin] + CC1(C)CCC(c2ccc(Cl)cc2)=C(CN2CCN(c3ccc(C(=O)NS(=O)(=O)c4ccc(N[C@H](CCN5CCOCC5)CSc5ccccc5)c(S(=O)(=O)C(F)(F)F)c4)cc3)CC2)C1 [Navitoclax] (partner 0.5 µM)
Outline: (§1)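 After 5 days of treatment, lung cancer cells in 1536-well plates were fixed and stained in a single step (final 0.05% Triton X-100, 1% formaldehyde, 1 ug/ml Hoechst) and their nuclei counted on 4× images. Treatment had been applied by pin tool the day after seeding as one drug alone or as a fixed anchor-drug dose with five library-drug doses (not always all listed) in √10 steps. Relative viability is the nuclei count of treated wells divided by that of vehicle wells, and values are medians of duplicate plates.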

Carboplatin + Vorinostat = compound: C1CC(C1)(C(=O)O)C(=O)O.[NH2-].[NH2-].[Pt+2] [Carboplatin] + O=C(CCCCCCC(=O)Nc1ccccc1)NO [Vorinostat] (partner 1 µM)
Outline: as §1

GSK126 + Vorinostat = compound: CC[C@H](C)N1C=C(C2=C(C=C(C=C21)C3=CN=C(C=C3)N4CCNCC4)C(=O)NCC5=C(C=C(NC5=O)C)C)C [GSK126] + O=C(CCCCCCC(=O)Nc1ccccc1)NO [Vorinostat] (partner 1 µM)
Outline: as §1

Cell Line	relative viability (Carboplatin + Navitoclax; first compound 0.08 µM)	relative viability (Carboplatin + Navitoclax; first compound 0.253 µM)	relative viability (Carboplatin + Navitoclax; first compound 0.8 µM)	relative viability (Carboplatin + Navitoclax; first compound 2.53 µM)	relative viability (Carboplatin + Navitoclax; first compound 8 µM)	relative viability (Carboplatin + Vorinostat; first compound 0.08 µM)	relative viability (Carboplatin + Vorinostat; first compound 0.253 µM)	relative viability (Carboplatin + Vorinostat; first compound 0.8 µM)	relative viability (Carboplatin + Vorinostat; first compound 2.53 µM)	relative viability (Carboplatin + Vorinostat; first compound 8 µM)	relative viability (GSK126 + Vorinostat; first compound 0.08 µM)	relative viability (GSK126 + Vorinostat; first compound 0.253 µM)	relative viability (GSK126 + Vorinostat; first compound 0.8 µM)	relative viability (GSK126 + Vorinostat; first compound 2.53 µM)	relative viability (GSK126 + Vorinostat; first compound 8 µM)
NCI-H1395	1.16	1.2	0.799	0.845	0.591	1.03	0.638	0.847	0.644	0.502	0.655	0.731	0.715	0.855	0.743
NCI-H1437	1.07	1.14	1.09	1.05	0.97	0.803	0.869	0.728	0.808	0.598	0.902	0.885	0.774	0.77	0.763
NCI-H1650	1.33	1.11	1.13	1.07	0.726	0.64	0.584	0.599	0.459	0.271	0.678	0.546	0.605	0.431	0.681
NCI-H1651	0.973	1.13	0.982	0.904	0.538	0.617	0.556	0.588	0.524	0.483	0.614	0.548	0.545	0.6	0.55
NCI-H1666	1.04	1.12	0.745	0.853	0.641	1.09	0.966	1.04	0.921	0.665	1.15	1	0.912	0.978	1.11
NCI-H1734	0.873	0.905	0.873	0.729	0.676	0.823	0.83	0.78	0.779	0.545	0.906	0.816	0.804	0.766	0.769
NCI-H1755	1.02	1.01	1.04	1.02	0.891	0.793	0.834	0.874	0.722	0.685	0.8	0.719	0.74	0.794	0.58
NCI-H1793	0.496	0.585	0.388	0.453	0.435	0.884	0.796	0.62	0.682	0.745	0.841	0.703	0.717	0.825	0.671
NCI-H1915	0.795	0.751	0.745	0.752	0.579	0.508	0.506	0.513	0.48	0.299	0.602	0.474	0.542	0.5	0.54
NCI-H1944	1.1	1.1	0.991	1.02	0.656	0.533	0.61	0.59	0.523	0.368	0.656	0.524	0.601	0.566	0.594
NCI-H1975	1.19	1.26	1.01	1.09	1.18	0.783	0.711	0.579	0.534	0.656	0.708	0.676	0.741	0.645	0.67
NCI-H1993	0.981	0.867	0.855	0.755	0.861	0.801	0.809	0.8	0.712	0.522	0.921	0.779	0.79	1.02	1.1
NCI-H2009	1.12	1.08	1.09	1.04	0.733	0.75	0.771	0.723	0.704	0.477	0.822	0.679	0.714	0.672	0.771
NCI-H2023	1.02	0.96	0.883	0.76	0.312	0.628	0.733	0.434	0.299	0.11	0.962	0.804	0.533	0.709	0.712
NCI-H2085	1.25	1.09	1.09	1.05	1.09	0.803	0.764	0.839	0.761	0.711	0.851	0.813	0.804	0.841	0.948
NCI-H2087	0.944	1.03	0.944	1.01	0.895	0.981	1.23	0.62	0.531	0.396	0.847	0.523	0.652	0.652	1.15
NCI-H2126	0.894	0.871	0.853	0.865	0.784	0.804	0.894	0.832	0.823	0.856	0.867	0.789	0.829	0.805	0.783
NCI-H2170	0.679	0.594	0.633	0.588	0.508	0.94	0.811	0.89	0.737	0.413	0.914	1.01	0.748	0.799	0.772
NCI-H2228	1.2	0.818	0.855	0.744	0.472	0.748	0.0948	0.623	0.566	0.343	0.343	0.725	0.644	0.616	0.923
NCI-H2347	0.897	0.929	0.771	0.721	0.673	0.555	0.586	0.646	0.595	0.526	0.659	0.479	0.503	0.601	0.563
NCI-H2405	0.869	0.862	0.639	0.629	0.62	1.19	0.983	1.12	1.11	0.767	1.12	0.933	1.01	1.05	1.04
NCI-H3122	1.03	0.988	1.01	1.02	0.97	0.874	0.729	0.99	1.06	1	1.14	1.15	0.933	1.06	1.18
PC-3 [JPC-3]	0.85	0.78	0.83	0.717	0.725	1.14	0.799	0.9	0.765	0.685	0.949	0.82	0.806	1	0.825
PC-14	0.991	0.974	0.985	0.918	0.566	0.862	0.783	0.582	0.234	0.142	0.768	0.732	0.623	0.745	0.692
RERF-LC-KJ	1.29	0.739	0.822	0.915	0.652	0.797	0.642	0.735	0.676	0.505	0.747	0.791	0.654	0.716	0.827
SK-LU-1	0.824	0.774	0.946	0.872	0.387	0.923	0.657	0.861	0.664	0.459	0.852	0.684	0.781	0.776	0.905
SK-MES-1	1.13	1.3	1.2	1.21	1.16	1.19	1.06	1.08	1.01	0.961	1.12	1.19	1.04	1.04	1.13
SW 1573	0.91	1.03	0.922	1.1	0.543	0.739	1.01	0.865	0.817	0.396	1.02	0.704	0.681	0.735	0.852
